Measurements published in ChEMBL document CHEMBL1201862, “PubChem BioAssay data set” (2004).
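These data come from cells grown in 96-well plates and exposed to compound for 48 hours at five concentrations. GI50 is the concentration that inhibits growth by half.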 Calls of active or inactive are those of the source. Rule as the data show it: active = GI50 up to about 1.1 µM and inactive = higher.

Columns and labels:
Assay in all cases: inhibition of tumour cell growth, NCI panel, 48 h
LOX IMVI = system: LOX IMVI
PC-3 = system: PC-3
SNB-19 = system: SNB-19
OVCAR-8 = system: OVCAR-8
Malme-3M = system: Malme-3M
OVCAR-3 = system: OVCAR-3
M14 = system: M14
T47D = system: T47D
HCT-116 = system: HCT-116
HCT-15 = system: HCT-15
786-0 = system: 786-0
IGROV-1 = system: IGROV-1
MDA-MB-435 = system: MDA-MB-435
SF-295 = system: SF-295
CAKI-1 = system: CAKI-1
UACC-62 = system: UACC-62
Hs-578T = system: Hs-578T
DU-145 = system: DU-145
RXF 393 = system: RXF 393
NCI-H522 = system: NCI-H522

Compound | GI50 (LOX IMVI) | GI50 (PC-3) | GI50 (SNB-19) | GI50 (OVCAR-8) | GI50 (Malme-3M) | GI50 (OVCAR-3) | GI50 (M14) | GI50 (T47D) | GI50 (HCT-116) | GI50 (HCT-15) [µM] | GI50 (786-0) | GI50 (IGROV-1) | GI50 (MDA-MB-435) | GI50 (SF-295) | GI50 (CAKI-1) | GI50 (UACC-62) | GI50 (Hs-578T) | GI50 (DU-145) | GI50 (RXF 393) | GI50 (NCI-H522)
O=c1[nH]c(=O)n(C2CC(O)C(COP(=O)(OCC(Cl)(Cl)Cl)OCC(Cl)(Cl)Cl)O2)cc1F (stereo not drawn) | > 35.1 µM (inactive) | 15.2 µM (inactive) | 7.98 µM (inactive) | 0.556 µM (active) | 6.05 µM (inactive) | 8 µM (inactive) | 2 µM (inactive) | > 50.8 µM (inactive) | 2.21 µM (inactive) | > 56.1 | 0.245 µM (active) | > 65.6 µM (inactive) | > 86.3 µM (inactive) | 0.123 µM (active) | 0.3 µM (active) | 0.396 µM (active) | 52.7 µM (inactive) | 2.81 µM (inactive) |  | 
COc1cc(N(Cc2ccc3oc(=O)c(-c4ccccc4)nc3c2)Cc2ccc3oc(=O)c(-c4ccccc4)nc3c2)cc(OC)c1OC | > 10 µM (inactive) | > 10 µM (inactive) | > 10 µM (inactive) | > 10 µM (inactive) |  | > 10 µM (inactive) | > 10 µM (inactive) | > 10 µM (inactive) | > 10 µM (inactive) | > 10 | > 10 µM (inactive) | > 10 µM (inactive) | > 10 µM (inactive) | > 10 µM (inactive) | > 10 µM (inactive) | > 10 µM (inactive) | > 10 µM (inactive) | > 10 µM (inactive) | > 10 µM (inactive) | > 10 µM (inactive)
Cc1ccsc1/C=N/Nc1cnccn1 | 76.4 µM (inactive) | > 100 µM (inactive) | > 100 µM (inactive) | 27.4 µM (inactive) | > 100 µM (inactive) | > 100 µM (inactive) | > 100 µM (inactive) | > 100 µM (inactive) | > 100 µM (inactive) | > 100 | > 100 µM (inactive) | 40.1 µM (inactive) | > 100 µM (inactive) | > 100 µM (inactive) | > 100 µM (inactive) | > 100 µM (inactive) | > 100 µM (inactive) | > 100 µM (inactive) | > 100 µM (inactive) | 
O=C(OC[C@H]1C[C@H]2C(=O)OCCC[C@H]2O1)c1ccccc1 |  | > 100 µM (inactive) | > 100 µM (inactive) | > 100 µM (inactive) |  | > 100 µM (inactive) | > 100 µM (inactive) | > 100 µM (inactive) | > 100 µM (inactive) | > 100 | > 100 µM (inactive) | > 100 µM (inactive) | > 100 µM (inactive) | > 100 µM (inactive) | > 100 µM (inactive) | > 100 µM (inactive) | > 100 µM (inactive) | > 100 µM (inactive) |  | > 100 µM (inactive)
CCCCCCc1cc2cc(C(=O)Nc3ccccc3F)c(=N)oc2cc1O | 5.24 µM (inactive) | 11.2 µM (inactive) | 8.83 µM (inactive) | 2.89 µM (inactive) | 6.12 µM (inactive) | 6.38 µM (inactive) | 10.2 µM (inactive) | 3.51 µM (inactive) | 5.7 µM (inactive) | 3.93 | 11.9 µM (inactive) | 3.34 µM (inactive) | 3.39 µM (inactive) | 12.1 µM (inactive) | 6.32 µM (inactive) | 6.55 µM (inactive) | 11.4 µM (inactive) | 9.31 µM (inactive) |  | 2.69 µM (inactive)
C=C[C@]1(O[Si](C)(C)C)C[C@@]2(C(=O)OCC)C(O)C(=O)N3CCc4cc(OC)c(OC)cc4[C@]312 (stereo partly drawn) | > 100 µM (inactive) | 93.8 µM (inactive) | > 100 µM (inactive) | > 100 µM (inactive) | > 100 µM (inactive) | > 100 µM (inactive) | > 100 µM (inactive) | > 100 µM (inactive) | > 100 µM (inactive) | > 100 | > 100 µM (inactive) | > 100 µM (inactive) | > 100 µM (inactive) | > 100 µM (inactive) | > 100 µM (inactive) | 21.4 µM (inactive) | 31.3 µM (inactive) | > 100 µM (inactive) | > 100 µM (inactive) | 
C[C@@H]1CC[C@H]2[C@H](C)C(OC3O[C@@H]4O[C@@]5(C)CC[C@H]6[C@H](C)CC[C@@H]([C@@H]3C)[C@@]46O5)O[C@@H]3O[C@@]4(C)CC[C@@H]1[C@]32O4 (stereo partly drawn) | > 100 µM (inactive) | > 100 µM (inactive) | > 100 µM (inactive) | > 100 µM (inactive) | > 100 µM (inactive) | > 100 µM (inactive) | > 100 µM (inactive) | > 100 µM (inactive) | > 100 µM (inactive) | > 100 | > 100 µM (inactive) |  | > 100 µM (inactive) | > 100 µM (inactive) | > 100 µM (inactive) | > 100 µM (inactive) | > 100 µM (inactive) | > 100 µM (inactive) |  | > 100 µM (inactive)
NNC(=O)c1ccccc1NC(=O)/C(=C/c1ccccc1O)NC(=O)c1ccccc1 | 47.1 µM (inactive) |  | 24.1 µM (inactive) | 18.1 µM (inactive) | 25.4 µM (inactive) |  | 55.6 µM (inactive) | 11.5 µM (inactive) | 88.3 µM (inactive) | 21.7 | 16.3 µM (inactive) | 14.5 µM (inactive) | 57.7 µM (inactive) | 44.8 µM (inactive) | 12.9 µM (inactive) | 67.1 µM (inactive) | 14.7 µM (inactive) | > 100 µM (inactive) | 63 µM (inactive) | 13.4 µM (inactive)
CC(NC(=O)/C(=C/c1ccccc1O)NC(=O)c1ccccc1)C(=O)O (stereo not drawn) | 33.2 µM (inactive) |  | 20.6 µM (inactive) | 15.7 µM (inactive) | 21 µM (inactive) |  | 51.3 µM (inactive) | 13.2 µM (inactive) | 33.2 µM (inactive) | 24.1 | 24.9 µM (inactive) | 17.9 µM (inactive) | 27.8 µM (inactive) | 21.4 µM (inactive) | 19 µM (inactive) | 26 µM (inactive) | 17.4 µM (inactive) | 45.6 µM (inactive) | 21.8 µM (inactive) | 18.5 µM (inactive)
OCCCCCNc1cc(O)nc(O)n1 | > 100 µM (inactive) | > 100 µM (inactive) | > 100 µM (inactive) | > 100 µM (inactive) | > 100 µM (inactive) | > 100 µM (inactive) | > 100 µM (inactive) | > 100 µM (inactive) | > 100 µM (inactive) | > 100 | > 100 µM (inactive) | > 100 µM (inactive) | > 100 µM (inactive) | > 100 µM (inactive) | > 100 µM (inactive) | > 100 µM (inactive) | > 100 µM (inactive) |  | > 100 µM (inactive) | > 100 µM (inactive)
Cc1ccc(S(=O)(=O)NC(=O)NCC(=O)O)cc1 | > 100 µM (inactive) | > 100 µM (inactive) | > 100 µM (inactive) | > 100 µM (inactive) | > 100 µM (inactive) |  | > 100 µM (inactive) | > 100 µM (inactive) | > 100 µM (inactive) | > 100 | > 100 µM (inactive) | > 100 µM (inactive) |  | > 100 µM (inactive) |  | > 100 µM (inactive) | > 100 µM (inactive) | > 100 µM (inactive) | > 100 µM (inactive) | > 100 µM (inactive)
O=c1n(-c2ccccc2)c(=O)n2n1C1CCC2CC1 | > 100 µM (inactive) | > 100 µM (inactive) | > 100 µM (inactive) | > 100 µM (inactive) |  | > 100 µM (inactive) | > 100 µM (inactive) | > 100 µM (inactive) | > 100 µM (inactive) | > 100 | > 100 µM (inactive) | > 100 µM (inactive) | > 100 µM (inactive) | > 100 µM (inactive) | > 100 µM (inactive) | > 100 µM (inactive) | > 100 µM (inactive) | > 100 µM (inactive) |  | 
CC(O)(CCCCCl)c1nc2ccccc2s1 (stereo not drawn) | 48.4 µM (inactive) | 34.9 µM (inactive) | > 100 µM (inactive) | > 100 µM (inactive) |  | > 100 µM (inactive) | > 100 µM (inactive) | 29.8 µM (inactive) | 47 µM (inactive) | > 100 | > 100 µM (inactive) | > 100 µM (inactive) | > 100 µM (inactive) | > 100 µM (inactive) | > 100 µM (inactive) | > 100 µM (inactive) | > 100 µM (inactive) | > 100 µM (inactive) |  | > 100 µM (inactive)
CC(=O)N1c2ccccc2C(C)(C)OC1C(Cl)(Cl)Cl (stereo not drawn) |  | 31.8 µM (inactive) | 44.7 µM (inactive) | 39.5 µM (inactive) | 35.9 µM (inactive) | 33.1 µM (inactive) | 34 µM (inactive) | 84.7 µM (inactive) | 28.8 µM (inactive) | 32.2 | 39 µM (inactive) | 41.8 µM (inactive) | 25.5 µM (inactive) | 37.6 µM (inactive) | 46.6 µM (inactive) | 37 µM (inactive) | 22.6 µM (inactive) | 42.1 µM (inactive) |  | 23.3 µM (inactive)
CC(=O)OCC1OC(n2c(N)c(C#N)c(-c3ccc(C)cc3)c(C#N)c2=S)C(OC(C)=O)C(OC(C)=O)C1OC(C)=O (stereo not drawn) | 32.7 µM (inactive) | 31.8 µM (inactive) | 18.8 µM (inactive) | 15.2 µM (inactive) | 17.8 µM (inactive) | 31.3 µM (inactive) | 16.4 µM (inactive) | 17.5 µM (inactive) | 46.1 µM (inactive) | 38 | 15.7 µM (inactive) | 20.3 µM (inactive) | 21.2 µM (inactive) | 25.4 µM (inactive) | 63.7 µM (inactive) | 43.5 µM (inactive) | 19.8 µM (inactive) | 15.4 µM (inactive) | 18.7 µM (inactive) | 
